The target in this assay is T1, MNK2 (Homo sapiens, UniProt Q9HBH9).
T1 construct: the open reading frames of human Mnk1 and Mnk2a were amplified from cDNA; made in house; host or cells: E. coli BL21
As to the kind of experiment: Mnk2a in vitro kinase assay (indirect fluorescence polarization). Format: biochemical. Conditions: pre-activated GST-Mnk2a 2.5 nM, 20 μM ATP, 30 μM substrate peptide. Here is the method:
Inhibitory potency of compounds against Mnk1, Mnk2a and other kinases was assessed with assays based on a format known to those skilled in the art as the indirect (competitive) fluorescence polarization. The assay detection system comprises a small fluorophore-labeled phospho-peptide (termed ligand) bound to a phospho-specific antibody. The product generated by the kinase reaction competes with the ligand for antibody binding. Based on the larger molecular volume of the bound ligand, which results in a lower rotation rate in solution, its emitted light has a higher degree of polarization than the one from the free ligand.
Example 2a. Mnk1 and Mnk2a in vitro kinase assay
As a source of enzyme, human Mnk1 and human Mnk2a were expressed as GST fusion proteins in E. coli, purified to >80% homogeneity by glutathione affinity chromatography and activated in vitro with pre-activated ERK2. In brief, the open reading frames of human Mnk1 and Mnk2a were amplified from cDNA using the forward/reverse primer pairs
(utilized restriction sites underlined), respectively, and cloned into the BamHI and SalI sites of the vector pGEX-4T1 (Amersham, Sweden, cat. no. 27-4580-01). These constructs allow prokaryotic expression of Mnk1 or Mnk2a as fusion protein with a N-terminal glutathione S-transferase (GST) tag, referred to as GST-Mnk1 or GSTMnk2a. The following expression and purification procedure was identical for GSTMnk1 and GST-Mnk2a, referring in general to GST-Mnk, when not distinguishing between the two isoforms. Expression of GST-Mnk was in E. coli BL21 (Merck Biosciences, Germany, cat. no. 69449). Cells were grown in LB-Bouillon (Merck, Germany, cat. no. 1.10285) supplemented with 100 μg/ml ampicillin (Sigma, Germany, cat. no. A9518) at 37° C. When the culture had reached a density corresponding to an A600 of 0.8, an equal volume of ice cold LB/ampicillin was added, the culture transferred to 25° C. and induced for 4 h with 1 mM isopropyl thiogalactoside (IPTG, Roth, Germany, cat. no. 2316.4). Cells harvested by centrifugation were resuspended in 10 ml lysis buffer (50 mM tris(hydroxymethyl)aminomethane hydrochloride (Tris/HCl, Sigma, Germany, cat. no. T5941) pH 7.5, 300 mM sodium chloride (NaCl, Sigma, Germany, cat. no. S7653), 5% (w/v) glycerol (Sigma, Germany, cat. no. G5516), 3 mM DTT dithiotreitol (DTT, Sigma, Germany, cat. no. D9779)) per gram wet weight cell pellet. Lysates were prepared by disruption of cells with a sonifier and subsequent clearing by centrifugation at 38000 g for 45 min at 4° C.
The lysate was applied to a GSTPrep FF 16/10 column (Amersham, Sweden, cat. no. 17-5234-01) equilibrated with lysis buffer. Removal of unbound material was with 3 column volumes (CV) lysis buffer. Elution was with 2 CV of elution buffer (50 mM Tris/HCl pH 7.5, 300 mM NaCl, 5% (w/v) glycerol, 20 mM glutathione (Sigma, Germany, cat. no. G4251)). Peak fractions were pooled and the protein transferred into storage buffer (50 mM Tris/HCl pH 7.5, 200 mM NaCl, 0.1 mM ethylene glycolbis(2-aminoethylether)-N,N,N′,N′-tetraacetic acid (EGTA, Aldrich, Germany, cat. no. 23, 453-2), 1 mM DTT, 10% (w/v) glycerol, 0.5 M sucrose (Sigma, Germany, cat. no. S0389) by gel filtration on a PD10 desalting column (Amersham, Sweden, cat. no. 17-0851-01). Aliquots were shock frozen in liquid nitrogen and stored at −80° C.
Activation of Mnk1 and Mnk2a was at a concentration of 2.5 μM of either purified GST-Mnk1 or GST-Mnk2a by incubation with 150 nM pre-activated NHis-ERK2 (see ERK2 assay for preparation) and 50 μM adenosine triphosphate (ATP, Sigma, cat. no. A2699) in a buffer comprising 20 mM N-(2-hydroxyethyl)piperazine-N′-(2-ethanesulfonic acid) (HEPES, Fluka, Germany, cat. no 54459)/potassium hydroxide (KOH, Roth, Germany, cat. no 6751.1) pH 7.4, 10 mM magnesium chloride (MgCl2, Sigma, Germany, cat. no. M2670), 0.25 mM DTT, 0.05% (w/v) polyoxyethylene 20 stearylether (Brij 78, Sigma, Germany, cat. no. P4019) (HMDB buffer) for 45 min at 30° C. […]

T1 sequence (Q9HBH9 whole entry): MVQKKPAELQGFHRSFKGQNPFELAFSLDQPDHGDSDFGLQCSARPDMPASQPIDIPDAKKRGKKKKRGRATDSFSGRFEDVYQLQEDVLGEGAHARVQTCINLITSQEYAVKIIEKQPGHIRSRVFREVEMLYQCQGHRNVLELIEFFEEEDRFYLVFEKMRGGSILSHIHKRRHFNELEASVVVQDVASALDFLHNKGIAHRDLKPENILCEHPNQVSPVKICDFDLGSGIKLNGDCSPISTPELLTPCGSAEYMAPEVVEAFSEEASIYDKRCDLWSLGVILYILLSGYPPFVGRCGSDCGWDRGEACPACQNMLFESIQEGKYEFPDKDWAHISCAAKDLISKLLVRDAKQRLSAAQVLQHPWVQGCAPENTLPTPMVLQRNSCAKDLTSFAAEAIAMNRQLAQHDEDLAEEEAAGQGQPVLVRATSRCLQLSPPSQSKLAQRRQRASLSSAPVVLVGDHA

As a reminder, the IC50 is the concentration that inhibits the measured activity by half. Read a high IC50 as weaker potency in that assay. Take `CO[C@@H]1CCC[C@@H](Oc2ncccc2Nc2ncnc3sc(C(=O)NCCCN4CCCC4)c(C)c23)C1` (racemic) [Example 148]: the IC50 turned out to be 49 nM.
The value for `Cc1c(C(N)=O)sc2ncnc(Nc3ccc(F)cc3O[C@@H]3CCC[C@H]4OC(C)(C)O[C@@H]34)c12` (relative stereo) [Example 1] was 13 nM; that for `Cc1c(C(N)=O)sc2ncnc(Nc3ccc(F)cc3O[C@@H]3CCC[C@@H](O)[C@H]3O)c12` (relative stereo) [Example 2] was 21 nM; that for `CN[C@H]1CCC[C@@H](Oc2cc(F)ccc2Nc2ncnc3sc(C(N)=O)c(C)c23)C1` (relative stereo) [Example 17, 4-(4-Fluoro-2-(cis-3-(N-methylamino)cyclohexyloxy)phenylamino)-5-methylthieno[2,3-d]pyrimidine-6-carboxamide] was 28 nM.
`CN[C@H]1CCC[C@H](Oc2cc(F)ccc2Nc2ncnc3sc(C(N)=O)c(C)c23)C1` (relative stereo) [Example 18, 4-(4-Fluoro-2-(trans-3-(N-methylamino)cyclohexyloxy)phenylamino)-5-methylthieno[2,3-d]pyrimidine-6-carboxamide] returned an IC50 of 36 nM.
The same measure for `COC(=O)c1sc2ncnc(Nc3ccc(F)cc3OC3C[C@@H](O)C[C@H](O)C3)c2c1C` (relative stereo) [Example 30.1]: 9 nM; for `CO[C@H]1CCC[C@@H](Oc2ncccc2Nc2ncnc3sc(C(=O)NCC4COCCN4)c(C)c23)C1` (relative stereo) [Example 120]: 33 nM.
The same measure for `CO[C@H]1CCC[C@@H](Oc2ncccc2Nc2ncnc3sc(C(=O)NCC(C)O)c(C)c23)C1` (relative stereo) [Example 125]: 44 nM; for `CO[C@H]1CCC[C@@H](Oc2ncccc2Nc2ncnc3sc(C(=O)NCCCO)c(C)c23)C1` (relative stereo) [Example 126]: 23 nM.
The value for `CO[C@@H]1CCC[C@@H](Oc2ncccc2Nc2ncnc3sc(C(=O)NCC4CNCCO4)c(C)c23)C1` (relative stereo) [Example 140] was 49 nM.
With `CO[C@@H]1CCC[C@@H](Oc2ncccc2Nc2ncnc3sc(C(=O)NCCO)c(C)c23)C1` (relative stereo) [Example 143], the IC50 amounted to 77 nM.
`Cc1c(C(N)=O)sc2ncnc(Nc3ccc(F)cc3OC3C[C@@H](O)[C@H](O)C3)c12` (relative stereo) [Example 211]: half-maximal inhibition (IC50) was put at 8 nM.
`Cc1c(C(N)=O)sc2ncnc(Nc3ccc(F)cc3O[C@@H]3CC[C@@H](O)[C@H]3O)c12` (relative stereo) [Example 221] gave an IC50 of 10 nM.
The value for `Cc1c(C(=O)NCCCN(C)C)sc2ncnc(Nc3ccc(F)cc3O[C@@H]3CC[C@@H](O)[C@H]3O)c12` (relative stereo) [Example 222] was 41 nM.
The value for `Cc1c(C(N)=O)sc2ncnc(Nc3ccc(F)cc3O[C@@H]3CC[C@H](O)[C@@H]3O)c12` (relative stereo) [Example 223] was 18 nM.
The same measure for `Cc1c(C(N)=O)sc2ncnc(Nc3ccc(F)cc3O[C@@H]3CCC[C@@H]3O)c12` (relative stereo) [Example 224]: 8 nM; for `COC(=O)[C@H](CO)NC(=O)c1sc2ncnc(Nc3ccc(F)cc3O[C@H]3CC[C@H](OC)CC3)c2c1C` (relative stereo) [Example 272, 2-({-4-[4-Fluoro-2-(trans-4-methoxy-cyclohexyloxy)-phenylamino]-5-methyl-thieno[2,3-d]pyrimidine-6-carbonyl}-amino)-3-hydroxy-propionic acid methyl ester]: 33 nM.
`COC(=O)c1sc2ncnc(Nc3ccc(F)cc3O[C@@H]3CCCC[C@@H]3O)c2c1C` (single isomer, unassigned) [Example 256, 4-[4-fluoro-2-(cis-2-hydroxy-cyclohexyloxy)-phenylamino]-5-methyl-thieno[2,3-d]pyrimidine-6-carboxylic acid methyl ester] registered an IC50 of 1290 nM.

These data come from patent US8754079B2, “Cycloalkyl containing thienopyrimidines for pharmaceutical compositions” (Boehringer Ingelheim International GmbH, priority 2010, dated 2014).
